Source: article PMC5218480 (PLoS ONE, 2017)

System: MV-4-11 cells
Experiment: Gene expression microarray analysis (Affymetrix PrimeView) and GSEA
Type: cell-based, human
Set-up: RFU PODN (11730768_x_at) / Fold change /veh PODN (11730768_x_at) / RFU LINC00158 (11744669_a_at) / Fold change /veh LINC00158 (11744669_a_at) / RFU DUSP10 (11751237_a_at) / Fold change /veh DUSP10 (11751237_a_at) / RFU ID3 (11757404_x_at) / Fold change /veh ID3 (11757404_x_at) / RFU PLEKHG5 (11737974_s_at) / Fold change /veh PLEKHG5 (11737974_s_at) / RFU LRRC4B (11730491_at) / Fold change /veh LRRC4B (11730491_at) / RFU GIMAP4 (11747438_a_at) / Fold change /veh GIMAP4 (11747438_a_at) / RFU KRT8 (11758183_x_at) / Fold change /veh KRT8 (11758183_x_at) / RFU CNN1 (11734310_a_at) / Fold change /veh CNN1 (11734310_a_at) / RFU VPS37D (11726825_at) / Fold change /veh VPS37D (11726825_at) / RFU C10orf10 (11716522_x_at) / Fold change /veh C10orf10 (11716522_x_at) / RFU KIR2DL2 /// KIR2DL4 /// KIR2DL5A /// KIR2DL5B /// KIR2DS1 /// KIR2DS2 /// KIR2DS3 /// KIR2DS4 /// KIR3DL3 /// KIR3DL3 /// KIR3DS1 (11738374_at) / Fold change /veh KIR2DL2 /// KIR2DL4 /// KIR2DL5A /// KIR2DL5B /// KIR2DS1 /// KIR2DS2 /// KIR2DS3 /// KIR2DS4 /// KIR3DL3 /// KIR3DL3 /// KIR3DS1 (11738374_at) / RFU C1QL1 (11718748_at) / Fold change /veh C1QL1 (11718748_at) / RFU TMPRSS4 (11747572_a_at) / Fold change /veh TMPRSS4 (11747572_a_at) / RFU HAMP (11756126_x_at) / Fold change /veh HAMP (11756126_x_at) / RFU RNFT2 (11725882_a_at) / Fold change /veh RNFT2 (11725882_a_at) / RFU NR4A2 (11747474_a_at) / Fold change /veh NR4A2 (11747474_a_at) / RFU ABCC12 (11746883_a_at) / Fold change /veh ABCC12 (11746883_a_at) / RFU TMEM136 (11760407_x_at) / Fold change /veh TMEM136 (11760407_x_at) / RFU CLDN22 /// WWC2 (11732394_at) / Fold change /veh CLDN22 /// WWC2 (11732394_at) / RFU HLA-DPB1 (11760878_x_at) / Fold change /veh HLA-DPB1 (11760878_x_at) / RFU SPINT1 (11716480_a_at) / Fold change /veh SPINT1 (11716480_a_at) / RFU GAP43 (11754022_s_at) / Fold change /veh GAP43 (11754022_s_at) / RFU A4GNT (11735810_at) / Fold change /veh A4GNT (11735810_at) / RFU PRB3 (11715151_x_at) / Fold change /veh PRB3 (11715151_x_at) / RFU TUBB4B (11761932_at) / Fold change /veh TUBB4B (11761932_at) / RFU CAPN14 (11732068_a_at) / Fold change /veh CAPN14 (11732068_a_at) / RFU TMCC2 (11721928_a_at) / Fold change /veh TMCC2 (11721928_a_at) / RFU IRGQ (11745062_a_at) / Fold change /veh IRGQ (11745062_a_at) / RFU FAM174B (11720279_a_at) / Fold change /veh FAM174B (11720279_a_at) / RFU TMPRSS4 (11748680_a_at) / Fold change /veh TMPRSS4 (11748680_a_at) / RFU FAM212B (11763350_a_at) / Fold change /veh FAM212B (11763350_a_at) / RFU PLEKHG5 (11743358_a_at) / Fold change /veh PLEKHG5 (11743358_a_at) / RFU ZSCAN30 (11745921_a_at) / Fold change /veh ZSCAN30 (11745921_a_at) / RFU CMKLR1 (11741424_a_at) / Fold change /veh CMKLR1 (11741424_a_at) / RFU LOC101060620 /// MAPK8IP1 (11723275_at) / Fold change /veh LOC101060620 /// MAPK8IP1 (11723275_at) / RFU SPTSSB (11747773_x_at) / Fold change /veh SPTSSB (11747773_x_at) / RFU PRSS12 (11739890_at) / Fold change /veh PRSS12 (11739890_at) / RFU BIN1 (11741810_x_at) / Fold change /veh BIN1 (11741810_x_at) / RFU WNT11 (11732464_a_at) / Fold change /veh WNT11 (11732464_a_at) / RFU C10orf10 (11716521_a_at) / Fold change /veh C10orf10 (11716521_a_at) / RFU C5orf56 (11738089_at) / Fold change /veh C5orf56 (11738089_at) / RFU CYB561 (11721691_x_at) / Fold change /veh CYB561 (11721691_x_at) / RFU ANKRD19P (11752326_a_at) / Fold change /veh ANKRD19P (11752326_a_at) / RFU OR2T12 /// OR2T33 /// OR2T8 (11738714_s_at) / Fold change /veh OR2T12 /// OR2T33 /// OR2T8 (11738714_s_at) / RFU VCAN (11748164_a_at) / Fold change /veh VCAN (11748164_a_at) / RFU JSRP1 (11732532_at) / Fold change /veh JSRP1 (11732532_at) / RFU KRTAP10-11 (11738290_x_at) / Fold change /veh KRTAP10-11 (11738290_x_at) / RFU MYO3A (11730013_a_at) / Fold change /veh MYO3A (11730013_a_at) / RFU EBF3 (11725865_a_at) / Fold change /veh EBF3 (11725865_a_at) / RFU CAMK2N1 (11719241_x_at) / Fold change /veh CAMK2N1 (11719241_x_at) / RFU C5orf56 (11738088_a_at) / Fold change /veh C5orf56 (11738088_a_at) / RFU OLFML3 (11715873_a_at) / Fold change /veh OLFML3 (11715873_a_at) / RFU LOC100653217 /// NTM (11731650_a_at) / Fold change /veh LOC100653217 /// NTM (11731650_a_at) / RFU MAPK11 (11762145_a_at) / Fold change /veh MAPK11 (11762145_a_at) / RFU FIZ1 (11724087_x_at) / Fold change /veh FIZ1 (11724087_x_at) / RFU OASL (11726364_x_at) / Fold change /veh OASL (11726364_x_at) / RFU SOX15 (11748057_x_at) / Fold change /veh SOX15 (11748057_x_at) / RFU CD79A (11719716_a_at) / Fold change /veh CD79A (11719716_a_at) / RFU HIST1H1D (11736915_at) / Fold change /veh HIST1H1D (11736915_at) / RFU CASKIN2 (11723855_a_at) / Fold change /veh CASKIN2 (11723855_a_at) / RFU LOC730098 (11760151_x_at) / Fold change /veh LOC730098 (11760151_x_at) / RFU OR4N2 (11742367_at) / Fold change /veh OR4N2 (11742367_at) / RFU PRRT2 (11749266_a_at) / Fold change /veh PRRT2 (11749266_a_at) / RFU SNX32 (11753110_a_at) / Fold change /veh SNX32 (11753110_a_at) / RFU CDHR5 (11726645_a_at) / Fold change /veh CDHR5 (11726645_a_at) / RFU RCAN1 (11760418_a_at) / Fold change /veh RCAN1 (11760418_a_at) / RFU FAM167A (11723789_a_at) / Fold change /veh FAM167A (11723789_a_at) / RFU FAM26E (11764081_at) / Fold change /veh FAM26E (11764081_at) / RFU ISYNA1 (11749810_s_at) / Fold change /veh ISYNA1 (11749810_s_at) / RFU ACY1 (11761880_at) / Fold change /veh ACY1 (11761880_at) / RFU 11764098_at / Fold change /veh 11764098_at / RFU SAMD14 (11745864_x_at) / Fold change /veh SAMD14 (11745864_x_at) / RFU NPB (11741838_a_at) / Fold change /veh NPB (11741838_a_at) / RFU TMPRSS6 (11731388_a_at) / Fold change /veh TMPRSS6 (11731388_a_at) / RFU KRTAP10-2 (11738614_at) / Fold change /veh KRTAP10-2 (11738614_at) / RFU ARHGAP8 /// PRR5-ARHGAP8 (11727945_x_at) / Fold change /veh ARHGAP8 /// PRR5-ARHGAP8 (11727945_x_at) / RFU KRTAP5-7 /// NADSYN1 (11734609_at) / Fold change /veh KRTAP5-7 /// NADSYN1 (11734609_at) / RFU RASL12 (11751679_a_at) / Fold change /veh RASL12 (11751679_a_at) / RFU CDKN2B (11736163_a_at) / Fold change /veh CDKN2B (11736163_a_at) / RFU PRF1 (11729649_at) / Fold change /veh PRF1 (11729649_at) / RFU, ZNF638 /// ZNF638-IT1 / Fold change vs veh, ZNF638 /// ZNF638-IT1 / RFU, PANK3 / Fold change vs veh, PANK3 / RFU, SH3YL1 / Fold change vs veh, SH3YL1 / RFU, ZEB2 / Fold change vs veh, ZEB2 / RFU, NRIP1 / Fold change vs veh, NRIP1 / RFU, PTTG1IP / Fold change vs veh, PTTG1IP / RFU, CAPN2 / Fold change vs veh, CAPN2 / RFU, MED14 / Fold change vs veh, MED14 / RFU, SNORA58 / Fold change vs veh, SNORA58 / RFU, C1orf63 / Fold change vs veh, C1orf63 / RFU, LRRFIP1 / Fold change vs veh, LRRFIP1 / RFU, NDUFAF7 / Fold change vs veh, NDUFAF7 / RFU, SLC12A2 / Fold change vs veh, SLC12A2 / RFU, IBTK / Fold change vs veh, IBTK / RFU, ESF1 / Fold change vs veh, ESF1 / Fold change vs veh, TMEM50B / RFU, TAOK1 / Fold change vs veh, TAOK1 / RFU, ACBD3 / Fold change vs veh, ACBD3 / RFU, TMA16 / Fold change vs veh, TMA16 / RFU, RWDD3 / Fold change vs veh, RWDD3 / RFU, BCAT1 / Fold change vs veh, BCAT1 / RFU, EDEM3 / Fold change vs veh, EDEM3 / RFU, TMEM33 / Fold change vs veh, TMEM33 / RFU, WDR75 / Fold change vs veh, WDR75 / RFU, AHCTF1 / Fold change vs veh, AHCTF1 / RFU, TFRC / Fold change vs veh, TFRC / RFU, ZDHHC17 / Fold change vs veh, ZDHHC17 / RFU, NOM1 / Fold change vs veh, NOM1 / RFU, ARL8B / Fold change vs veh, ARL8B / RFU, ZBTB11 / Fold change vs veh, ZBTB11 / RFU, TAMM41 / Fold change vs veh, TAMM41 / RFU, KIAA1704 /// LOC100996395 / Fold change vs veh, KIAA1704 /// LOC100996395 / RFU, ING1 / Fold change vs veh, ING1 / RFU, TRMT61B / Fold change vs veh, TRMT61B / RFU, FUBP3 / Fold change vs veh, FUBP3 / RFU, TP53 / Fold change vs veh, TP53 / RFU, TNKS2 / Fold change vs veh, TNKS2 / RFU, ZFP14 / Fold change vs veh, ZFP14 / RFU, ACTR2 / Fold change vs veh, ACTR2 / RFU, PPP3R1 / Fold change vs veh, PPP3R1 / RFU, PIK3R1 / Fold change vs veh, PIK3R1 / RFU, HNRNPA1 / Fold change vs veh, HNRNPA1 / RFU, RNF170 / Fold change vs veh, RNF170 / RFU, ZNF28 / Fold change vs veh, ZNF28 / RFU, RNGTT / Fold change vs veh, RNGTT / RFU, OGT / Fold change vs veh, OGT / RFU, BRD1 / Fold change vs veh, BRD1 / RFU, MARS / Fold change vs veh, MARS / RFU, ZNF655 / Fold change vs veh, ZNF655 / RFU, FAHD1 / Fold change vs veh, FAHD1 / RFU, BDP1 / Fold change vs veh, BDP1 / RFU, LRRCC1 / Fold change vs veh, LRRCC1 / RFU, ARID1A / Fold change vs veh, ARID1A / RFU, ZNF146 / Fold change vs veh, ZNF146 / RFU, ZNF330 / Fold change vs veh, ZNF330 / RFU, GPN3 / Fold change vs veh, GPN3 / RFU, C9orf123 / Fold change vs veh, C9orf123 / RFU, N4BP2L2 / Fold change vs veh, N4BP2L2 / RFU, ARFIP1 / Fold change vs veh, ARFIP1 / RFU, FAM179B / Fold change vs veh, FAM179B / RFU, BCL10 / Fold change vs veh, BCL10 / RFU, UHRF1BP1L / Fold change vs veh, UHRF1BP1L / RFU, BET1 / Fold change vs veh, BET1 / RFU, CNOT2 / Fold change vs veh, CNOT2 / RFU, ZNF268 / Fold change vs veh, ZNF268 / Fold change vs veh, ZNF507 / RFU, DGCR2 / Fold change vs veh, DGCR2 / RFU, WDSUB1 / Fold change vs veh, WDSUB1 / Fold change vs veh, HSP90B1 /// MIR3652 / RFU, ADSS / Fold change vs veh, ADSS / RFU, GK / Fold change vs veh, GK / RFU, ZNF148 / Fold change vs veh, ZNF148 / RFU, TAF9 / Fold change vs veh, TAF9 / RFU, SLC1A5 / Fold change vs veh, SLC1A5 / RFU, SLMO2 / Fold change vs veh, SLMO2 / RFU, ABCC4 / Fold change vs veh, ABCC4 / RFU, LOC101060439 /// RAP1B / Fold change vs veh, LOC101060439 /// RAP1B / RFU, RFX7 / Fold change vs veh, RFX7 / RFU, GTPBP10 / Fold change vs veh, GTPBP10 / RFU, CNEP1R1 / Fold change vs veh, CNEP1R1 / RFU, BIVM-ERCC5 /// ERCC5 / Fold change vs veh, BIVM-ERCC5 /// ERCC5 / RFU, ILF3 / Fold change vs veh, ILF3 / RFU 11762660_at / Fold change /veh 11762660_at / RFU VCAN (11757783_s_at) / Fold change /veh VCAN (11757783_s_at) / RFU DDX43 (11728927_at) / Fold change /veh DDX43 (11728927_at) / RFU KRT8 (11758188_x_at) / Fold change /veh KRT8 (11758188_x_at) / RFU NKD1 (11759106_at) / Fold change /veh NKD1 (11759106_at) / RFU SRD5A1 (11742802_a_at) / Fold change /veh SRD5A1 (11742802_a_at) / RFU TPSAB1 /// TPSB2 (11721975_s_at) / Fold change /veh TPSAB1 /// TPSB2 (11721975_s_at) / RFU GSTM3 (11746129_a_at) / Fold change /veh GSTM3 (11746129_a_at) / RFU IL23R (11737362_x_at) / Fold change /veh IL23R (11737362_x_at) / RFU TMEM51 (11727254_a_at) / Fold change /veh TMEM51 (11727254_a_at) / RFU PIWIL2 (11732686_x_at) / Fold change /veh PIWIL2 (11732686_x_at) / RFU ORM1 (11744905_x_at) / Fold change /veh ORM1 (11744905_x_at) / RFU CCDC152 (11743942_at) / Fold change /veh CCDC152 (11743942_at) / RFU ECM1 (11717891_a_at) / Fold change /veh ECM1 (11717891_a_at) / RFU IL23R (11748794_a_at) / Fold change /veh IL23R (11748794_a_at) / RFU TNFAIP8L3 (11732012_x_at) / Fold change /veh TNFAIP8L3 (11732012_x_at) / RFU MBOAT4 (11741988_at) / Fold change /veh MBOAT4 (11741988_at) / RFU 11764193_at / Fold change /veh 11764193_at / RFU TMEM53 (11763286_at) / Fold change /veh TMEM53 (11763286_at) / RFU MAGEB2 (11727129_at) / Fold change /veh MAGEB2 (11727129_at) / RFU TMEM200A (11744735_a_at) / Fold change /veh TMEM200A (11744735_a_at) / RFU CCDC152 (11751479_a_at) / Fold change /veh CCDC152 (11751479_a_at) / RFU FAM211A (11726209_a_at) / Fold change /veh FAM211A (11726209_a_at) / RFU RGS16 (11746705_a_at) / Fold change /veh RGS16 (11746705_a_at) / RFU VCAN (11755009_s_at) / Fold change /veh VCAN (11755009_s_at) / RFU RHOB (11743442_s_at) / Fold change /veh RHOB (11743442_s_at) / RFU RGS16 (11720943_a_at) / Fold change /veh RGS16 (11720943_a_at) / RFU RGS16 (11720944_at) / Fold change /veh RGS16 (11720944_at) / RFU, VPS4B / Fold change vs veh, VPS4B / RFU, CREB1 / Fold change vs veh, CREB1 / RFU, DNAJC13 / Fold change vs veh, DNAJC13 / RFU, GNAQ / Fold change vs veh, GNAQ / RFU, CDK5R1 / Fold change vs veh, CDK5R1 / RFU, ZRANB3 / Fold change vs veh, ZRANB3 / RFU, CUL4A / Fold change vs veh, CUL4A / RFU, CCNY / Fold change vs veh, CCNY / RFU, UFL1 / Fold change vs veh, UFL1 / RFU, COG3 / Fold change vs veh, COG3 / RFU, DIAPH2 / Fold change vs veh, DIAPH2 / RFU, SKA2 / Fold change vs veh, SKA2 / RFU, AFF3 / Fold change vs veh, AFF3 / RFU, LMF1 / Fold change vs veh, LMF1 / RFU, IPO11 / Fold change vs veh, IPO11 / RFU, DFFB / Fold change vs veh, DFFB / RFU, FOXP1 / Fold change vs veh, FOXP1 / RFU, CARD8 / Fold change vs veh, CARD8 / RFU, STRN3 / Fold change vs veh, STRN3 / RFU, ADK / Fold change vs veh, ADK / RFU, RASSF2 / Fold change vs veh, RASSF2 / RFU, WIPF1 / Fold change vs veh, WIPF1 / RFU, LARP1B / Fold change vs veh, LARP1B / RFU, RASA1 / Fold change vs veh, RASA1 / RFU, RB1 / Fold change vs veh, RB1 / RFU, PPFIA1 / Fold change vs veh, PPFIA1 / RFU, MAT2A / Fold change vs veh, MAT2A / RFU, CCT5 / Fold change vs veh, CCT5 / RFU, WDR92 / Fold change vs veh, WDR92 / RFU, CUX1 / Fold change vs veh, CUX1 / RFU, TTC7A / Fold change vs veh, TTC7A / RFU, TMEM135 / Fold change vs veh, TMEM135 / RFU, DEPTOR / Fold change vs veh, DEPTOR / RFU, CPM / Fold change vs veh, CPM / RFU, DNAJB6 / Fold change vs veh, DNAJB6 / RFU, CACNA2D3 / Fold change vs veh, CACNA2D3 / RFU, DTX4 / Fold change vs veh, DTX4 / RFU, TFCP2 / Fold change vs veh, TFCP2 / RFU, GMCL1 /// GMCL1P1 / Fold change vs veh, GMCL1 /// GMCL1P1 / RFU, AEBP2 / Fold change vs veh, AEBP2 / RFU, SNHG1 /// SNORD22 /// SNORD25 /// SNORD26 /// SNORD27 /// SNORD28 /// SNORD29 /// SNORD31 / Fold change vs veh, SNHG1 /// SNORD22 /// SNORD25 /// SNORD26 /// SNORD27 /// SNORD28 /// SNORD29 /// SNORD31 / Fold change (Aza/veh), C12orf56 (ProbeSet 11735607_a_at) / Fold change (ACY-1035/veh), C12orf56 (ProbeSet 11735607_a_at) / Fold change (Aza/veh), FGFR1OP (ProbeSet 11751329_s_at) / Fold change (ACY-1035/veh), FGFR1OP (ProbeSet 11751329_s_at) / Fold change (Aza/veh), VPS36 (ProbeSet 11739960_a_at) / Fold change (ACY-1035/veh), VPS36 (ProbeSet 11739960_a_at) / RFU SYPL1 (11715823_x_at) / Fold change /veh SYPL1 (11715823_x_at) / RFU IGFBP7 (11715501_s_at) / Fold change /veh IGFBP7 (11715501_s_at) / RFU REEP3 (11722064_at) / Fold change /veh REEP3 (11722064_at) / RFU IGLL1 (11728026_x_at) / Fold change /veh IGLL1 (11728026_x_at): dose or concentration left out as unconfirmed
Details: ProbeSet 11718569_a_at; LIST D

Compound: Nc1ncn([C@@H]2O[C@H](CO)[C@@H](O)[C@H]2O)c(=O)n1 [azacitidine]
- RFU, WIPF1: 81.62 RFU
